# Earlier results, collected in publication PMC11901438, “Synthesis and Evaluation of Boron-Containing Heterocyclic Compounds with Antimicrobial and Anticancer Activities” (Molecules, 2025).
# Tested on: Mycobacterium tuberculosis
# Parameters: method as in PMID 33410233
# Conditions: earlier work of the same laboratory; cited from earlier work
row,Structure (SMILES),MIC90 (CIM90) anti-Mycobacterium tuberculosis [µM]
1,O=C(Nc1ccc(N2CCN(c3ccc(F)cc3)CC2)c(F)c1)c1ccc2no[n+]([O-])c2c1 [Compound 3],3.82
2,O=C(Nc1ccc(N2CCCCCC2)c(F)c1)c1ccc2no[n+]([O-])c2c1 [Compound 6],2.89
3,O=C(Nc1ccc(N2CCN(c3ncccn3)CC2)c(F)c1)c1ccc2no[n+]([O-])c2c1 [Compound 2],2.22
4,O=C(Nc1ccc(N2CCOCC2)c(F)c1)c1ccc2no[n+]([O-])c2c1 [Compound 5],5.22
5,O=C(Nc1ccc(N2CCN(c3ccccn3)CC2)c(F)c1)c1ccc2no[n+]([O-])c2c1 [Compound 1],0.09
6,O=C(Nc1ccc(N2CCSCC2)c(F)c1)c1ccc2no[n+]([O-])c2c1 [Compound 4],0.70
